The results in this text go back to ChEMBL document CHEMBL1151866, “Design and synthesis of novel delta opioid receptor agonists and their pharmacologies” (Bioorg Med Chem Lett, 2009).

Broadly, the Ki is the dissociation constant of the complex between target and ligand, obtained from inhibition or displacement. As usually defined, the EC50 is the concentration giving half of the maximal effect. In general, ED50 refers to the midpoint of the dose-response relation. A high value points to a need for a large dose.

A short description of assay [1]: Selectivity ratio of Ki for kappa opioid receptor in guinea pig cerebellum to Ki for delta opioid receptor in rat cerebellum membrane. It counts as cell membranes.
The target in assay [2] is T1, Delta-type opioid receptor (Homo sapiens, UniProt P41143). Put plainly: Ratio of EC50 for drug to EC50 for TAN-67 against human recombinant delta opioid receptor.
The target of the next assay is Mu-type opioid receptor (Rattus norvegicus, UniProt P33535). Put plainly: Displacement of [3H]DAMGO from mu opioid receptor in rat cerebellum membrane. It counts as cell membranes. (Displacement assays read how much labelled ligand stays bound in the presence of the test substance.)
The target of assay [3] is T1, Delta-type opioid receptor. The experiment in a line: Agonist activity at human recombinant delta opioid receptor expressed in HEK293 cells by [35S]GTPgammaS binding assay. It counts as functional, cell-based. In general terms: GTPγS resists hydrolysis and so accumulates on activated G proteins.
Assay [4] concerns the target Delta-type opioid receptor (Rattus norvegicus, UniProt P33533). The experiment in a line: Displacement of [3H]DADLE from delta opioid receptor in rat cerebellum membrane. It counts as cell membranes.
In assay [5] the target is Kappa-type opioid receptor (Cavia porcellus, UniProt P41144). The experiment in a line: Displacement of [3H]U-69593 from kappa opioid receptor in guinea pig cerebellum. The format is tissue-based.
For another assay, the species on record is Rattus norvegicus. The experiment in a line: Selectivity ratio of Ki for mu opioid receptor in rat cerebellum membrane to Ki for delta opioid receptor in rat cerebellum membrane. It counts as cell membranes.
In assay [6] the target is T1, Delta-type opioid receptor. The experiment in a line: Agonist activity at human recombinant delta opioid receptor expressed in CHO cells by [35S]GTPgammaS binding assay. It counts as functional, cell-based.
For the next assay, the system named is Mus musculus. Put plainly: Analgesic activity against acetic acid-induced writhing in sc dosed mouse. The format is functional.

Delta-type opioid receptor (Rattus norvegicus, UniProt P33533), sequence (P33533 whole entry): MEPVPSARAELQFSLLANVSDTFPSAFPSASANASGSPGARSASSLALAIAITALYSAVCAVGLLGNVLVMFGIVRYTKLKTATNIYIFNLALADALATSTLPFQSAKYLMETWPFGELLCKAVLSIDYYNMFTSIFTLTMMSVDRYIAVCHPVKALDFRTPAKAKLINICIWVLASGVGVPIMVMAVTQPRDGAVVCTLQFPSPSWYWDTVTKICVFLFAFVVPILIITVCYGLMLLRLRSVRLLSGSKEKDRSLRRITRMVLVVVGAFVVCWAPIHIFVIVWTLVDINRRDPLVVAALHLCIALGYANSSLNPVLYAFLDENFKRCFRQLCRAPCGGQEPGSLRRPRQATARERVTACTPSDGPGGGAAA
Kappa-type opioid receptor, sequence (P41144 whole entry): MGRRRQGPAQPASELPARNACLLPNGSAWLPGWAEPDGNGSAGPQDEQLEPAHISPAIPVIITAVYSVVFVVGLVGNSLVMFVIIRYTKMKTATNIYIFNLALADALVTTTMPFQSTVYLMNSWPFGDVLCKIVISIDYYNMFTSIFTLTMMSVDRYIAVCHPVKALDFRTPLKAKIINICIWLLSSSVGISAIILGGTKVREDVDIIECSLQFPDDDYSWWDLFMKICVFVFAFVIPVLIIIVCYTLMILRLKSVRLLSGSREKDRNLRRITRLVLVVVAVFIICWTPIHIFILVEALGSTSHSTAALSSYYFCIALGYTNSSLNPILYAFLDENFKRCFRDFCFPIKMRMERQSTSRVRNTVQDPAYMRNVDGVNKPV
Mu-type opioid receptor, sequence (P33535 whole entry): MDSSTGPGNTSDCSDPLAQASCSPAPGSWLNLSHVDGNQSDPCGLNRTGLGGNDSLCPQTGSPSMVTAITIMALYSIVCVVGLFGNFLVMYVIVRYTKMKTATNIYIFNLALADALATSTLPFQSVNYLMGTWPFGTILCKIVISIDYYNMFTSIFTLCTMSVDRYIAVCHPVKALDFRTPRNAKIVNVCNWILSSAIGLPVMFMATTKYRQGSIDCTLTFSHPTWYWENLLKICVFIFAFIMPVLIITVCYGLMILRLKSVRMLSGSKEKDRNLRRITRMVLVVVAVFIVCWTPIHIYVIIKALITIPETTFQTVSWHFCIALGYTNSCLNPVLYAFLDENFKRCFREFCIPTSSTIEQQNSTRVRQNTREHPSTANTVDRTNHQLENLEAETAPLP
T1 sequence (P41143 whole entry): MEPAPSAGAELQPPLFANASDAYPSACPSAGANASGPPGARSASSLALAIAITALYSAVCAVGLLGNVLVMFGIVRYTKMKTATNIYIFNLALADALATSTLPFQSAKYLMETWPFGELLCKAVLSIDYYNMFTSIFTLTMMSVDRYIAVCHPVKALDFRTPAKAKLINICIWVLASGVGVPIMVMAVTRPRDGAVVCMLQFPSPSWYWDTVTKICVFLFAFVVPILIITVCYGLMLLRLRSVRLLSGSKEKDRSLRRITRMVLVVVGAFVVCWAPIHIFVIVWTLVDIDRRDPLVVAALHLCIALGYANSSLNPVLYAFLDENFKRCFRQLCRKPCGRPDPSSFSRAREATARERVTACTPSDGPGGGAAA

Take `CN1CC[C@]23Cc4nc5ccccc5cc4C[C@H]2[C@H]1Cc1ccc(O)cc13`: the figures for the Ratio (in [1]; in the assay listed under Rattus norvegicus) were 72.9 and 82.4, respectively. The Ratio EC50 in assay [2] was 10. Besides, the results for the Ki (at Mu-type opioid receptor; in [4]; in assay [5]) were 11.5 nM, 0.14 nM and 10.2 nM, respectively. Also, the EC50 in assay [3] amounted to 0.047 nM.
`CN1CC[C@]2(c3cccc(O)c3)Cc3nc4ccccc4cc3C[C@H]2C1`: the Ratio in [1] was 509; in the assay filed under Rattus norvegicus, 197. Further, the figures for the EC50 in assay [6] and in assay [3] were 1.4 nM and 0.7 nM, respectively. Besides, the values for the Ki (on Mu-type opioid receptor; in assay [4]; in assay [5]) were 284 nM, 1.44 nM and 732 nM, respectively. The same compound yielded an ED50 with Mus musculus of 31.4 mg/kg.
In the case of `CC(C)CN1CC[C@]23Cc4nc5ccccc5cc4C[C@H]2[C@H]1Cc1ccc(O)cc13`, the Ratio in assay [1] turned out to be 23.2; in the assay listed under Rattus norvegicus, 124. Moreover, the Ratio EC50 in assay [2] is 10. Also, the inhibition constant (Ki) on Mu-type opioid receptor was 23.6 nM; in assay [4], 0.19 nM; in [5] it was 4.41 nM. For the same compound, the EC50 in assay [3] is 0.06 nM.
In the case of `Oc1ccc2c(c1)[C@]13CCN(CC4CC4)[C@H](C2)[C@@H]1Cc1cc2ccccc2nc1C3`, the Ratio in [1] is 1.9; in the assay listed under Rattus norvegicus it was 4.1. In [2], the Ratio EC50 amounted to 10. Further, the values for the Ki (on Mu-type opioid receptor; in assay [4]; in assay [5]) were 0.77 nM, 0.19 nM and 0.36 nM, respectively. In addition, the EC50 in assay [3] stood at 0.018 nM.
